Tests used:
[1] = test system: rats; assay: 4-hour acute inhalation toxicity in rats (LC-50); format: in vivo; details: 4 hr inhalation in air, 14-day post-dose monitoring
Procedure: The 4-hour acute inhalation toxicity in rats (LC-50) was measured by dosing animals in air at the amounts shown in Table 2 for 4 hours, followed by 14-day post-dose monitoring. Based on the animal test results and the vapor concentration of the test compound, the LC-50 values were estimated.

[2] = Log KOW (octanol/water partition coefficient) by HPLC, OECD Method 117; format: physicochemical
Procedure: In these Examples, values of Log KOW (octanol/water partition coefficients) were determined by HPLC using the method described in OECD Method 117.

[3] = test system: rats; assay: Acute single dose oral toxicity in rats; format: in vivo; details: single oral dose 2000 mg/kg body weight
Procedure: The acute single dose oral toxicity of Comparative Example CE2 was examined in rats dosed at 2000 mg/kg body weight. […] Based on this study, the LD50 of CE2 was estimated to be >2000 mg/kg body weight.

| Compound | LC-50 (4 hr Inhalation rats) [1] | Log KOW [2] | clinical observations during the post dose recovery period [3] | necropsy results [3] |
| --- | --- | --- | --- | --- |
| COC(F)(C(F)(F)C(F)(F)F)C(F)(C(F)(F)F)C(F)(F)F (centres unmarked) [CE1, NOVEC 7300] | >430 mg/L | 4.3 | – | – |
| FC(F)(F)C(F)(F)C1(F)OCCC1(C(F)(F)F)C(F)(F)F (centres unmarked) [Example 1, 2-fluoro-2-(1,1,2,2,2-pentafluoroethyl)-3,3-bis(trifluoromethyl)tetrahydrofuran] | >1000 ppmv | 4.4 | – | – |
| FC(F)(F)C(F)(F)C(F)(F)C1(C(F)(F)F)CCOC1(F)C(F)(C(F)(F)F)C(F)(F)F (centres unmarked) [Example 2, 2-fluoro-3-(1,1,2,2,3,3,3-heptafluoropropyl)-2-[1,2,2,2-tetrafluoro-1-(trifluoromethyl)ethyl]-3-(trifluoromethyl)tetrahydrofuran] | – | 5.8 | – | – |
| NOVEC 7700 [Comparative Example CE2] | – | 6.6 | No adverse clinical observations | normal for all animals |

Reference: patent publication US11325893B2, “Hydrofluoroethers and methods of using same” (3M INNOVATIVE PROPERTIES COMPANY, priority 2018, dated 2022)
